The source of these data is patent US8071581B2, “Triazolopyridazine protein kinase modulators” (SGX Pharmaceuticals, Inc., priority 2006, dated 2011).

The structures appear in SMILES notation. A value given as a limit tells only on which side of the number the result lay.

Usually EC50 stands for the midpoint of the concentration-response curve. The low end stands for greater potency, the high end for weaker potency. For orientation: IC50 means the concentration that gives 50% inhibition. Low readings indicate inhibition by little substance, high ones a need for much substance.

One test has as its system GTL16 tumors. In words: GTL16 tumor xenograft model, tumor growth inhibition. Format: in vivo, female athymic nude mice. Particulars: for decrease of mean tumor volume compared to vehicle-treated group: last day of treatment. How it is done:
GTL16 Tumor Xenograft Model
Female athymic nude mice (nu/nu from Harlan) were 6-8 weeks old with a body weight range of 18-22 g at the beginning of the study. The animals had free access to food and water throughout the study. The mice were housed on irradiated Alpha-dri® Bed-O-Cobs® Laboratory Animal Bedding in static micro isolator caging on a 12-hour light cycle at 70-74° F. and 40-60% humidity. All procedures involving animals were conducted in compliance with the NIH Guide for the Care and Use of Laboratory Animals and all protocols were approved by an Internal Animal Care and Use Committee (IACUC).
Xenografts were initiated from GTL-16 tumor cells cultured and maintained by an internal Cell Biology Department. Each test mouse received a subcutaneous injection of 4×10^6 cells suspended in 100 μL of serum free RPMI media. Tumors were randomized into treatment groups on Day 5 when the average tumor size reached approximately 150 mm^3. Each dose groups contained n=5 mice. Tumor volume was calculated using the formula: Tumor Volume=(w^2×l)/2, where w=width and l=length in mm of the tumor. Tumor weight may be estimated with the assumption that 1 mg is equivalent to 1 mm^3 of tumor volume.
Tumor Growth Inhibition (TGI) Analysis
TGI was calculated from the difference between the mean tumor volumes of vehicle-treated and drug-treated mice, expressed as a percentage.
The MTV is defined as the mean tumor volume (MTV) for the number of animals, n, remaining in the study on that day.

For a further test, the system named is GTL16. In words: GTL16 cell assay (EC50). Type of test: cell-based. Particulars: Homo sapiens, GTL 16.
The target of test [1] is MET kinase (c-MET), kinase domain of human Met (Homo sapiens, UniProt P08581). The experiment in a line: MET luminescence-based enzyme assay (Kinase-Glo).
MET kinase (c-MET), kinase domain of human Met, sequence (P08581 1078-1345 limits assumed): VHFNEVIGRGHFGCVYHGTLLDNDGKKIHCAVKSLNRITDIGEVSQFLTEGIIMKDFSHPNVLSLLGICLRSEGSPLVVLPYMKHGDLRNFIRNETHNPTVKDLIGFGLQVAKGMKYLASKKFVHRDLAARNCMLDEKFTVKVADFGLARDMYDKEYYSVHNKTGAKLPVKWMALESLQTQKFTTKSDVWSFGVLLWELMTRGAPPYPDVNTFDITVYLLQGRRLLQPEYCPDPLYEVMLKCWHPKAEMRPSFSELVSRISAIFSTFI

On to `CNC(=O)c1ccc(-c2ccc3nnc(Cc4ccc5ncccc5c4)n3n2)cc1F` [compound 30], for which the “decrease of mean tumor volume compared to vehicle-treated group” value in the test with GTL16 tumors (3 mg/kg PO BID for 14 consecutive days, p<0.2743) was 27%; in the test with GTL16 tumors (50 mg/kg IP BID for 14 consecutive days, p<0.0036), 89%. For the same compound, in the test with GTL16 tumors (IP dose 50 mg/kg BID, 14 consecutive days), the “inhibition of growth of GTL16 tumors grown subcutaneously” value is reported as “statistically significant inhibition”. The EC50 in the test on GTL16 (Table 1) was less than 0.1 µM. The compound also registered an IC50 in test [1] of less than 0.1 µM.

With `Cc1ccc2nnc(Cc3ccc4ncc(-c5cnn(C)c5)cc4c3)n2n1` [compound 124, 3-(1-Methyl-1H-pyrazol-4-yl)-6-(6-methyl-[1,2,4]triazolo[4,3-b]pyridazin-3-ylmethyl)-quinoline], the “decrease of mean tumor volume compared to vehicle-treated group” value with GTL16 tumors (1 mg/kg PO Q12H for 14.5 consecutive days, p=0.0079) was 32%; in the test with GTL16 tumors (3 mg/kg PO Q12H for 14.5 consecutive days, p<0.0001), 55%; with GTL16 tumors (10 mg/kg PO Q12H for 14.5 consecutive days, p<0.0001) it was 72%; in the test on GTL16 tumors (30 mg/kg PO Q12H for 14.5 consecutive days, p<0.0001), 79%. In the test with GTL16 (Table 2), this compound had a concentration for a half-maximal effect (EC50) of less than 0.1 µM. The IC50 in test [1] was less than 0.1 µM.

`Cc1ccc2nnc(Cc3ccc4ncc(-c5cnn(CC6CN(C(=O)OC(C)(C)C)C6)c5)cc4c3)n2n1` [compound 169]: the EC50 in the test on GTL16 (Table 2) was less than 0.1 µM. Moreover, the IC50 in test [1] is less than 0.1 µM.

For the compound `Cc1ccc2nnc(Cc3ccc4ncc(-c5cnn(CCN6CCCC6)c5)cc4c3)n2n1` [compound 170], in the test with GTL16 (Table 2), the EC50 is less than 0.1 µM. In test [1], this compound gave an IC50 of less than 0.1 µM.

In the test on GTL16 (Table 2), `CCN1CC(n2cc(-c3cnc4ccc(Cc5nnc6ccc(C)nn56)cc4c3)cn2)C1` [compound 171, 3-[1-(1-Ethyl-azetidin-3-yl)-1H-pyrazol-4-yl]-6-(6-methyl-[1,2,4]triazolo[4,3-b]pyridazin-3-ylmethyl)-quinoline] had an EC50 of less than 0.1 µM. The compound further came in with an IC50 in test [1] of less than 0.1 µM.

`Cc1ccc2nnc(Cc3ccc4ncc(-c5cnn(CC6CN(S(C)(=O)=O)C6)c5)cc4c3)n2n1` [compound 172, 3-[1-(1-Methanesulfonyl-azetidin-3-ylmethyl)-1H-pyrazol-4-yl]-6-(6-methyl-[1,2,4]triazolo[4,3-b]pyridazin-3-ylmethyl)-quinoline] showed an EC50 in the test on GTL16 (Table 2) of 0.1 to 1 µM. In test [1], the IC50 is less than 0.1 µM.

On to `CCN(CC)CCn1cc(-c2cnc3ccc(Cc4nnc5ccc(C)nn45)cc3c2)cn1` [compound 173], for which the EC50 in the test with GTL16 (Table 2) was less than 0.1 µM. This compound gave an IC50 in test [1] of less than 0.1 µM.

Take `Cn1cc(-c2cnc3cc(F)c(Cc4nnc5cccnn45)c(F)c3c2)cn1` [compound 174]: in the test with GTL16 (Table 2), the EC50 lay in the range of 0.1 to 1 µM. In addition, in test [1], the IC50 is less than 0.1 µM.

In the case of `CC(=O)N1CC(n2cc(-c3cnc4ccc(Cc5nnc6ccc(C)nn56)cc4c3)cn2)C1` [compound 175, 1-(3-{4-[6-(6-Methyl-[1,2,4]triazolo[4,3-b]pyridazin-3-ylmethyl)-quinolin-3-yl]-pyrazol-1-yl}-azetidin-1-yl)-ethanone], the EC50 in the test on GTL16 (Table 2) was 0.1 to 1 µM. For the same compound, the IC50 in test [1] was less than 0.1 µM.

In the case of `Cc1ccc2nnc(Cc3c[nH]c4ncc(-c5cnn(C)c5)cc34)n2n1` [compound 177, 6-Methyl-3-[5-(1-methyl-1H-pyrazol-4-yl)-1H-pyrrolo[2,3-b]pyridine-3-ylmethyl]-[1,2,4]triazolo[4,3-b]pyridazine], in the test on GTL16 (Table 2), the EC50 was in the range of 0.1 to 1 µM. Also, in test [1], the IC50 is less than 0.1 µM.

In the case of `Cn1cc(-c2cnc3ccc(Cc4nnc5nccnn45)cc3c2)cn1` [compound 179, 3-(1-Methyl-1H-pyrazol-4-yl)-6-[1,2,4]triazolo[4,3-b][1,2,4]triazin-3-ylmethyl-quinoline], in the test with GTL16 (Table 2), the EC50 is less than 0.1 µM. Further, in test [1], the IC50 was less than 0.1 µM.

With `CCN1CC(Cn2cc(-c3cnc4ccc(Cc5nnc6ccc(C)nn56)cc4c3)cn2)C1` [compound 180], the EC50 in the test on GTL16 (Table 2) was less than 0.1 µM. In test [1], this compound gave a 50% inhibitory concentration (IC50) of less than 0.1 µM.

Regarding `CC(=O)N1CC(Cn2cc(-c3cnc4ccc(Cc5nnc6ccc(C)nn56)cc4c3)cn2)C1` [compound 181], the concentration giving a half-maximal response (EC50) with GTL16 (Table 2) lay within 0.1 to 1 µM. Also, the half-inhibitory concentration (IC50) in test [1] is less than 0.1 µM.

For `Cc1ccc2nnc(Cc3ccc4ncc(-c5cnn(C6CN(S(C)(=O)=O)C6)c5)cc4c3)n2n1` [compound 182], the EC50 in the test on GTL16 (Table 2) lay within 0.1 to 1 µM. Besides, the IC50 in test [1] is less than 0.1 µM.
